Experiments:
Experiment in all cases: relative viability (nuclei count vs DMSO), 5 days (fraction); higher = more cells survive
[1] = compound: c1ccc2c(CCNc3ccc(Nc4ccncc4)cc3)c[nH]c2c1 [Serdemetan] + CC(C)C[C@H](NC(=O)[C@H](Cc1ccccc1)NC(=O)c1cnccn1)B(O)O [Bortezomib] (partner 0.002 µM)
Method in brief: (§1)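 Lung cancer cell lines in 1536-well plates were dosed by pin tool the day after seeding, either with one drug alone or with a fixed anchor-drug dose plus five library-drug doses (not always all listed) in √10 steps. After 5 days, cells were fixed and their nuclei stained in one step (final 0.05% Triton X-100, 1% formaldehyde, 1 ug/ml Hoechst), then counted on 4× images. Relative viability is the nuclei count in treated wells divided by that in vehicle wells. Values are medians of duplicate plates.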

[2] = compound: c1ccc2c(CCNc3ccc(Nc4ccncc4)cc3)c[nH]c2c1 [Serdemetan] + CC(=O)c1c(C)c2cnc(Nc3ccc(N4CCNCC4)cn3)nc2n(C2CCCC2)c1=O [Palbociclib] (partner 0.5 µM)
Method in brief: as §1

[3] = compound: C1CC(C2=C(C1)C3=C(N2)C=CC(=C3)Cl)C(=O)N [Selisistat] + Cc1nc(NC(=O)N2CCC[C@H]2C(N)=O)sc1-c1ccnc(C(C)(C)C(F)(F)F)c1 [Alpelisib] (partner 2 µM)
Method in brief: as §1

[4] = compound: c1ccc2c(CCNc3ccc(Nc4ccncc4)cc3)c[nH]c2c1 [Serdemetan] + NC(=O)Nc1cc(-c2cccc(F)c2)sc1C(=O)N[C@H]1CCCNC1 [AZD7762] (partner 0.2 µM)
Method in brief: as §1

Cell Line | relative viability ([1]; first compound 0.04 µM) | relative viability ([1]; first compound 0.1265 µM) | relative viability ([1]; first compound 0.4 µM) | relative viability ([1]; first compound 1.265 µM) | relative viability ([1]; first compound 4 µM) | relative viability ([2]; first compound 0.04 µM) | relative viability ([2]; first compound 0.1265 µM) | relative viability ([2]; first compound 0.4 µM) | relative viability ([2]; first compound 1.265 µM) | relative viability ([2]; first compound 4 µM) | relative viability ([3]; first compound 0.4 µM) | relative viability ([3]; first compound 1.265 µM) | relative viability ([3]; first compound 4 µM) | relative viability ([3]; first compound 12.65 µM) | relative viability ([3]; first compound 40 µM) | relative viability ([4]; first compound 0.04 µM) | relative viability ([4]; first compound 0.1265 µM) | relative viability ([4]; first compound 0.4 µM) | relative viability ([4]; first compound 1.265 µM) | relative viability ([4]; first compound 4 µM)
HOP-62 | 1.09 | 0.928 | 0.476 | 0.47 | 0.871 | 0.466 | 0.469 | 0.545 | 0.3 | 0.209 | 0.796 | 1.02 | 1.06 | 0.944 | 1 | 0.762 | 0.544 | 0.731 | 0.519 | 0.49
NCI-H2085 | 1.11 | 1.13 | 1.06 | 0.723 | 0.674 | 0.46 | 0.457 | 0.466 | 0.382 | 0.342 | 1.04 | 0.983 | 0.968 | 1.06 | 0.919 | 0.995 | 0.916 | 0.974 | 0.801 | 0.792

Source: the supplement of paper PMC10307832
